According to PubChem BioAssay AID434957 (The Scripps Research Institute Molecular Screening Center, 2010):
Active and inactive are the calls of the source.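 How the source made its calls: active means IC50, the dose halving KLF5 reporter signal, at most 10 µM; inactive means IC50 above 10 µM or none.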

tested on: DLD-1 KLF5 promoter luciferase reporter, luminescence; experiment: KLF5 luciferase suppression by analogs – luminescence, DLD-1 cells, round 1, SAR follow-up (AID 434957)

IC50 | Structure (SMILES)
7.96 µM | O=C(Cc1ccccc1)Nc1cc2nn(-c3ccccc3)nc2cc1Cl
> 39.8 µM (inactive) | O=C(Nc1cc2nn(-c3ccccc3)nc2cc1Cl)C1COc2ccccc2C1 (stereo unspecified)
4.56 µM | CC(C)(C)C(=O)Nc1ccc2nn(-c3ccc(F)cc3)nc2c1
0.285 µM | CCOc1ccc(NC(=O)CCc2nc(-c3ccc(C(C)(C)C)cc3)no2)cc1
> 39.8 µM (inactive) | CCOc1ccc2nc(Nc3nc4ccc(F)cc4s3)sc2c1
0.229 µM | Cc1cccc(NC(=O)CCc2nc(-c3ccc(C(C)(C)C)cc3)no2)c1
> 39.8 µM (inactive) | CS(=O)(=O)c1ccc2nc(Nc3nc4ccc(F)cc4s3)sc2c1
> 39.8 µM (inactive) | COc1ccc(-n2nc3cc(C)c(NC(=O)C(C)C)cc3n2)cc1
> 39.8 µM (inactive) | CC(C)c1ccc2nc(Nc3nc4ccc(F)cc4s3)sc2c1
> 39.8 µM (inactive) | CC1(C)CC(=O)c2sc(NC(=O)c3ccc4ncsc4c3)nc2C1
> 39.8 µM (inactive) | Cc1ccc(OCC(=O)Nc2ccc3nn(-c4cccc(C(F)(F)F)c4)nc3c2)cc1C
0.267 µM | CC(C)(C)c1ccc(-c2noc(CCC(=O)Nc3ccc(N4CCOCC4)nc3)n2)cc1
> 39.8 µM (inactive) | Nc1cc2nn(-c3ccccc3)nc2cc1Cl
> 39.8 µM (inactive) | Cc1nc(NC(=O)c2ccc3ncsc3c2)sc1C(=O)N(C)C
19.4 µM (inactive) | CC(C)(C)c1ccc(-c2coc(CCC(=O)Nc3ccccn3)n2)cc1
> 39.8 µM (inactive) | Cc1ccc(-n2nc3ccc(NC(=O)COc4ccc(C)c(C)c4)cc3n2)cc1
> 39.8 µM (inactive) | CCNC(=O)c1sc(NC(=O)c2ccc3ncsc3c2)nc1C
> 39.8 µM (inactive) | COc1ccc2nc(Nc3nc4ccc(F)cc4s3)sc2c1
> 39.8 µM (inactive) | CC(C)(C)c1ccc(-c2noc(CCc3nc4ccccc4[nH]3)n2)cc1
0.0562 µM | CCNC(=O)c1ccc2nc(Nc3nc4ccc(F)cc4s3)sc2c1
> 39.8 µM (inactive) | CC(NC(=O)c1ccccc1)c1nc(-c2ccc(C(C)(C)C)cc2)no1 (stereo unspecified)

Further lines, the molecule ahead of its results:

Structure (SMILES) | IC50
CC(=O)Nc1ccc2nc(Nc3nc4ccc(F)cc4s3)sc2c1 | > 39.8 µM (inactive)
COc1ccc(-n2nc3ccc(NC(=O)C4CCN(S(=O)(=O)c5ccc(Cl)cc5)CC4)cc3n2)cc1 | > 39.8 µM (inactive)
CN(C)C(=O)c1ccc2nc(Nc3nc4ccc(F)cc4s3)sc2c1 | 0.0131 µM
CC(C)(C)c1ccc(-c2noc(CCCC(=O)Nc3ccccc3Cl)n2)cc1 | 0.806 µM
CC(C)C(=O)Nc1ccc2nn(-c3ccc(Cl)cc3)nc2c1 | 26.3 µM (inactive)
Cc1ccc(-n2nc3cc(Cl)c(NC(=O)c4cccnc4)cc3n2)cc1 | > 39.8 µM (inactive)
COc1ccc(-n2nc3ccc(NC(=O)C(C)(C)C)cc3n2)cc1 | > 39.8 µM (inactive)
CC(C)(C)c1ccc(-c2noc(CCC(=O)Nc3ccccn3)n2)cc1 | 0.159 µM
O=C(COc1ccccc1)Nc1ccc2nn(-c3cccc(Cl)c3)nc2c1 | > 39.8 µM (inactive)
CC(C)(C)c1ccc(-c2noc(CCC(=O)Nc3ccccc3)n2)cc1 | 0.116 µM
CC(C)(C)c1ccc(-c2noc(CCC(=O)Nc3ccncc3)n2)cc1 | 0.107 µM
CC(=O)c1sc(NC(=O)c2ccc3ncsc3c2)nc1C | > 39.8 µM (inactive)
CC(=O)c1sc(NC(=O)c2ccc3ncsc3c2)nc1-c1ccccc1 | > 39.8 µM (inactive)
CC(C)(C)C(=O)Nc1ccc2nn(-c3ccccc3)nc2c1 | 3.18 µM
CC(C)(C)c1ccc(-c2noc(CCC(=O)NCc3ccccc3)n2)cc1 | 3.57 µM
